{"source": "patent US20150182456A1", "about": "“HYDROGEL VACCINE FORMULATIONS” (Sigmoid Pharma Limited, priority 2012, published 2015)", "system": "Female C57/bl6 Mice", "experiment": "V. Cholerae Experiment 1: immune response in fecal pellets", "type": "in vivo", "settings": "oral, 2.5×10^8 bacteria, 10 μg αGalCer, 3 rounds, ELISA", "data": [{"smiles": "CCCCCCCCCCCCCCCCCCCCCCCCCC(=O)N[C@@H](CO[C@H]1O[C@H](CO)[C@H](O)[C@H](O)[C@H]1O)[C@H](O)[C@H](O)CCCCCCCCCCCCCC", "note": "[αGalCer, α-galactosylceramide]", "values": [{"measurement": "anti Inaba-LPS IgA and IgG titres in fecal pellets", "result": "effective adjuvant"}]}]}
